# From patent US20230040081A1 (priority 2019, published 2023)
# “And” between values parts separate entries of the source, which are not always exact repeats. Equal entries are not always repeated.
# B1: vRNAP elongation scaffold (template DNA/non-template DNA/RNA) (mixed)
# DNA 1: GACTTATGATCGGATAAGAGTCCAGCCAATGACAGATGCCTCATAGCC
# DNA 2: GGCTATGAGGCATCCCATGCGTTGAGGACTCTTATCCGATCATAAGTC
# RNA: GAGUUGUAAUAACAAGGGAAAUGUCAUUGGC
# modifications: RNA 5'-triphosphate
# What was measured:
# viral RNA polymerase [1] = test: Potential inhibitors: Results Screen; assay type: biochemical; conditions: test concentration not given
# Procedure: (§1) Compound stocks were prepared at a concentration of 1 mM in 65% DMSO, at a volume of 5 μL each.
# viral RNA polymerase [2] = test: Potential inhibitors: Results Hit validation; assay type: biochemical; conditions: test concentration not given
# Procedure: as §1
# Clopt1 (Vaccinia virus) [3] = assay type: cell-based
# Clopt1 (Vaccinia virus) [4] = assay type: cell-based; remark: listed apart in the source
# [5] = biological target: Vaccinia RNA polymerase core enzyme (Rpo147/Rpo132/Rpo35/Rpo30/Rpo22/Rpo19/Rpo18/Rpo7) (Vaccinia virus (GLV-1h439, Lister …, UniProt P07392;Q76ZP7;P24757;P21603;P68609;P68611;P04310;P68317 …)); test: structure; conditions: tags: HA/FLAG C-terminal on Rpo132
Molecule,Results Screen Median Screen (% inhibition) (viral RNA polymerase [1]),Results Hit validation Median (% inhibition) (viral RNA polymerase [2]),also measured
Oc1cc(O)cc(CCC/C=C\CCCCCCCCCc2cc(O)cc(O)c2)c1 [AD153413-03_H2],73.1 % inhibition,48.9 % inhibition,
O=C1c2ccc(O)cc2O[C@H](c2ccc(O)c(O)c2)[C@H]1O [AD153413-21_A6],68.8 % inhibition,54.7 % inhibition,
CC1(C)C2CC[C@]3(C)C(C(=O)C=C4[C@H]5C[C@@](C)(C(=O)O)CC[C@]5(C)CC[C@]43C)[C@@]2(C)CC[C@@H]1O (some centres unmarked) [AD153413-01_B11],75.6 % inhibition,72.1 % inhibition,
CC(=O)O[C@H]1CC[C@]2(C)C(CC[C@@]3(C)C2[C@@H](O)C=C2[C@@H]4[C@H](C)[C@@H](C)CC[C@@]4(C)CC[C@@]23C)[C@]1(C)C(C)=O (some centres unmarked) [AD153413-25_A8],73.8 % inhibition,86.3 % inhibition,
COc1cc(OC)cc([C@@H](C)C(=O)c2ccc(O)cc2O)c1 [AD153413-09_A6],81.1 % inhibition,64.2 % inhibition,
COc1cc(C)cc(C(=O)O)c1C1=C(O)C(=O)c2c(O)cccc2C1=O [AD153413-06_A10],72.4 % inhibition,64.1 % inhibition,
COc1cc(C2c3c(cc(OC)c(O)c3O)CC(CO)C2CO[C@H]2O[C@@H](C(=O)O)[C@H](O)[C@@H](O)[C@@H]2O)cc(OC)c1O (some centres unmarked) [AD153413-11_A11],83 % inhibition,57.1 % inhibition,
CC[C@H](C)/C=C(C)/C=C/C(=O)Cc1cc(O)c(C)c(O)c1C=O [AD153413-17_A5],71 % inhibition,70.9 % inhibition,
OC[C@@H]1O[C@H](Oc2ccc(O)c3cccc(O)c23)[C@@H](O)[C@H](O)[C@H]1O [AD153413-14_C5],63.3 % inhibition,52.6 % inhibition,
CCCCC(C)C(=O)C(CC(C)CCCCCCC(O)CC(O)C(C)NC(C)=O)OC(=O)CC(CC(=O)O)C(=O)O (centres unmarked) [AD153413-12_D11],73.7 % inhibition,50.1 % inhibition,
CC1CCC2(C)CCC3(C)C(=CCC4C5(C)CCC(O)C(C)(C(=O)O)C5CCC43C)C2C1C (centres unmarked) [AD153413-25_A7],85.9 % inhibition,70 % inhibition,
O=C(CCc1ccc(O)cc1)CC(CCc1ccc(O)cc1)OC1O[C@@H](COC(=O)/C=C/c2ccc(O)cc2)[C@H](O)[C@@H](O)[C@@H]1O (some centres unmarked) [AD153413-07_H11],70 % inhibition,45.2 % inhibition,
CC(=O)O[C@H]1C[C@@H](O)[C@]23COC(O)[C@@]1(C)C2C[C@H](O)[C@@]1(C)C3C(=O)[C@@H](OC(C)=O)[C@]2(C)[C@@H](c3ccoc3)C[C@@H]3O[C@@]321 (some centres unmarked) [AD153413-19_D3],71.8 % inhibition,41.6 % inhibition,
CC1=C[C@H](C/C(C)=C/COc2c3occc3cc3ccc(=O)oc23)OC1=O [AD153413-25_H9],79.1 % inhibition,51.1 % inhibition,
O=C(OC[C@@H]1O[C@H](Oc2ccc(O)cc2CO)[C@@H](O)[C@H](O)[C@H]1O)c1ccccc1 (racemic) [AD153413-11_H9],60.5 % inhibition,54.9 % inhibition,
C/C=C/c1ccc2c(c1)[C@H](C)[C@@H](c1ccc(O)cc1)O2 [AD153413-19_H4],98.8 % inhibition,50.8 % inhibition,
CCCCCCCC/C(=C/CC(=O)O)C(=O)O [AD153413-16_C3],84.3 % inhibition,40.5 % inhibition,
CC(=O)OC1CC2C(COC(=O)CC(C)C)=CO[C@H](OC(=O)CC(C)C)C2C12CO2 (some centres unmarked) [AD153413-09_A3],89.7 % inhibition,55.9 % inhibition,
CC[C@H](C1=C(O)C(C)(C)C(=O)C(C)(C)C1=O)c1c(O)cc(O)c(C(=O)C(C)C)c1O [AD153413-09_B9],85.2 % inhibition,61.5 % inhibition,
C[C@]1(C(=O)O)CC[C@@]2(C)CC[C@@]3(C)C4=CC(=O)c5cc(O)c(O)cc5[C@@]4(C)CC[C@]3(C)[C@H]2C1 [AD153413-04_H6],77 % inhibition,52.2 % inhibition,
C=C(C)C1=C[C@@]2(C)C(=CC1=O)CC[C@@H](O)[C@@H]2C [AD153413-10_F2],80 % inhibition,50.8 % inhibition,

Molecule,Results Screen Median Screen (% inhibition) (viral RNA polymerase [1]),Results Hit validation Median (% inhibition) (viral RNA polymerase [2]),also measured
COc1cc(C2OC(c3cc(OC)c(OC)c(OC)c3)C(C)C2C)cc(OC)c1OC (centres unmarked) [AD153413-14_E9],67.1 % inhibition,43.8 % inhibition,
COc1cc(-c2oc3cc(O[C@H]4O[C@@H](CO)[C@H](O)[C@@H](O)[C@@H]4O)c(OC)c(O)c3c(=O)c2OC)ccc1O [AD153413-17_A6],77.1 % inhibition,62.2 % inhibition,
COC(=O)[C@H](Cc1ccccc1)NC(=O)c1ccccc1 [AD153413-18_A11],81 % inhibition,60.6 % inhibition,
C=C(/C=C/[C@@H](CCC(=O)O)C(C)C)CCC(C)=O [AD153413-08_B4],73.6 % inhibition,41.9 % inhibition,
CCC(C)C(=O)OC1CC(C)C=C2C=CC(C)C(CCC(O)CC(O)CC(=O)O)C21 (centres unmarked) [AD153413-16_G9],87.4 % inhibition,64.7 % inhibition,
"NC(=O)CC[C@H](N)C(=O)O [glutamine, L-glutamine]",,,"Factor (Clopt1 (Vaccinia virus) [3]): 1222 and 1468 and 1774 and 2000; virus replication, times higher with glutamine in the third medium switch than negative counterparts (Clopt1 (Vaccinia virus) [3]): more than 1000 times; intensity, times lower without glutamine in the third medium switch than counterparts (Clopt1 (Vaccinia virus) [4]): roughly 100 times; final intensity, times lower in glutamine absence than in glutamine fed samples (Clopt1 (Vaccinia virus) [4]; after 21 hours): over 100 times"
COc1cc(-c2cc(=O)c3c(O)c(C4OC(CO)C(O)C(OC5OC(CO)C(O)C(O)C5OC5OC(CO)C(O)C(O)C5O)C4OC(=O)/C=C/c4ccc(O)c(O)c4)c(O)cc3o2)ccc1O (centres unmarked) [AD153413-17_A4],69.6 % inhibition,52.3 % inhibition,
CC(C)C1NC(=O)C2CCCN2C1=O (centres unmarked) [AD153413-12_C11],61.7 % inhibition,44.2 % inhibition,
O=C(/C=C/c1ccc(O)c2c1C(C(=O)O)C(c1ccc(O)c(O)c1)O2)OC(Cc1ccc(O)c(O)c1)C(=O)O (centres unmarked) [AD153413-16_E3],77.7 % inhibition,55.9 % inhibition,
O=C(O)/C=C/c1ccccc1O[C@H]1O[C@@H](CO)[C@H](O)[C@@H](O)[C@@H]1O [AD153413-02_F8],86.7 % inhibition,44 % inhibition,
CCC(C)C(=O)O[C@H]1CCC=C2C=C[C@H](C)[C@H](CC[C@@H](O)C[C@@H](O)CC(=O)O)[C@H]21 (some centres unmarked) [AD153413-09_E2],90.3 % inhibition,60.5 % inhibition,
COC(=O)C1=COC(OC2O[C@@H](CO)[C@H](O)[C@@H](O)[C@@H]2O)[C@H]2C1C=CC21C=C(C(C)CC(=O)/C=C/c2ccc(O)cc2)C(=O)O1 (some centres unmarked) [AD153413-23_G3],60.5 % inhibition,61.7 % inhibition,
COc1ccc(CCC(=O)O)cc1 [AD153413-03_F11],70.6 % inhibition,41.8 % inhibition,
NC(=O)c1c[nH]c(Cc2ccccc2)cc1=O [AD153413-06_B9],80 % inhibition,42.9 % inhibition,
CC1(C)CCC[C@@]2(C)[C@H]1[C@H](O)C=C1COC(=O)[C@]12O (racemic) [AD153413-10_B3],60.9 % inhibition,43.3 % inhibition,
COc1cc(O)c2c(c1)C(O)C(C)OC2=O (centres unmarked) [AD153413-16_B4],72.5 % inhibition,53.6 % inhibition,
COc1ccc2c(c1)OC1c3ccc(OC)cc3OCC21 (centres unmarked) [AD153413-01_A10],84.5 % inhibition,77.6 % inhibition,
COc1cc(O)c2c(=O)c(O[C@H]3O[C@H](C)[C@@H](O)[C@H](O)[C@@H]3O)c(-c3ccc(O)cc3)oc2c1O [AD153413-05_B3],72.4 % inhibition,43.6 % inhibition,
CC(O)CC1CCC(C(C)C(=O)OC(C)CC2CCC(C(C)C(=O)O)O2)O1 (centres unmarked) [AD153413-16_A3],83 % inhibition,44.5 % inhibition,
B1,,,binding result [5]: binds
